Source: PubChem BioAssay AID1919009 (Molecular Pharmacology Branch, DTP, NCI, 2023)
Where “and” joins values, the source holds several entries; their conditions need not be identical. Identical values can stand only once.

Tested on: K24384-001-R-PDC complex spheroid growth
Assay: Anticancer human tumor K24384-001-R-PDC patient-derived pancreatic adenocarcinoma cell line growth inhibition [AhR]
Conditions: for viability, T/C: stronger effect = lower value
Summary of the method: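 Complex tumor spheroids co-cultured with HUVEC and human MSC stroma; AhR antagonists tested in combination with standard-of-care and investigational agents. Top concentration at or near clinical Cmax (else 10 microM), half-log dilutions; growth expressed as percent test/control.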

[1] = curve of first compound, second compound 0.1 µM
[2] = curve of first compound, second compound 0.316 µM
[3] = curve of first compound, second compound 1 µM
[4] = curve of first compound, second compound 3.16 µM
[5] = curve of first compound, second compound 10 µM
[6] = second compound 0.1 µM, first compound 0.0316 µM
[7] = second compound 0.1 µM, first compound 0.1 µM
[8] = second compound 0.316 µM, first compound 0.0316 µM
[9] = second compound 0.316 µM, first compound 0.1 µM
[10] = second compound 1 µM, first compound 0.0316 µM
[11] = second compound 1 µM, first compound 0.1 µM
[12] = second compound 3.16 µM, first compound 0.0316 µM
[13] = second compound 3.16 µM, first compound 0.1 µM
[14] = second compound 10 µM, first compound 0.0316 µM
[15] = second compound 10 µM, first compound 0.1 µM
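For viability, T/C in this document: percent of DMSO vehicle-treated spheroid viability set as 100%.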

`CC[C@@]1(O)C(=O)OCc2c1cc1n(c2=O)Cc2cc3c(CN(C)C)c(O)ccc3nc2-1` + Cc1cncc(-c2nc(NCCc3c[nH]c4ccccc34)c3ncn(C(C)C)c3n2)c1 gave an IC50 [1] of 42.4 nM, an IC50 [2] of 42.2 nM and an IC50 [3] of 30.7 nM. For the same compound, the IC50 [4] was > 100 nM, the IC50 [5] was < 0.316 nM and the viability, T/C (second compound 0.1 µM, first compound 0.000316 µM) was 97.6%. It also gave a viability, T/C (second compound 0.1 µM, first compound 0.001 µM) of 92.5%, a viability, T/C (second compound 0.1 µM, first compound 0.00316 µM) of 81.2% and a viability, T/C (second compound 0.1 µM, first compound 0.01 µM) of 67.5%. For the same compound, the viability, T/C [6] was 55.5%, the viability, T/C [7] was 37.4% and the viability, T/C (second compound 0.316 µM, first compound 0.000316 µM) was 118%. For the same compound, the viability, T/C (second compound 0.316 µM, first compound 0.001 µM) was 100%, the viability, T/C (second compound 0.316 µM, first compound 0.00316 µM) was 87.9% and the viability, T/C (second compound 0.316 µM, first compound 0.01 µM) was 73.9%. It also gave a viability, T/C [8] of 51.6%, a viability, T/C [9] of 38.2% and a viability, T/C (second compound 1 µM, first compound 0.000316 µM) of 91.3%. For the same compound, the viability, T/C (second compound 1 µM, first compound 0.001 µM) was 111%, the viability, T/C (second compound 1 µM, first compound 0.00316 µM) was 95.5% and the viability, T/C (second compound 1 µM, first compound 0.01 µM) was 72.4%. The viability, T/C [10] was 49.1%, the viability, T/C [11] was 47% and the viability, T/C (second compound 3.16 µM, first compound 0.000316 µM) was 84.3%. The viability, T/C (second compound 3.16 µM, first compound 0.001 µM) was 93.8%, the viability, T/C (second compound 3.16 µM, first compound 0.00316 µM) was 86.4% and the viability, T/C (second compound 3.16 µM, first compound 0.01 µM) was 59.3%. For the same compound, the viability, T/C [12] was 52%, the viability, T/C [13] was 49.4% and the viability, T/C (second compound 10 µM, first compound 0.000316 µM) was 12.7%. It also gave a viability, T/C (second compound 10 µM, first compound 0.001 µM) of 10.1%, a viability, T/C (second compound 10 µM, first compound 0.00316 µM) of 14.5% and a viability, T/C (second compound 10 µM, first compound 0.01 µM) of 7.56%. For the same compound, the viability, T/C [14] was 5.07% and the viability, T/C [15] was 6.81%.
In the case of `CC1(C)CCC(CN2CCN(c3ccc(C(=O)NS(=O)(=O)c4ccc(NCC5CCOCC5)c([N+](=O)[O-])c4)c(Oc4cnc5[nH]ccc5c4)c3)CC2)=C(c2ccc(Cl)cc2)C1` + Cc1ccccc1N=Nc1ccc(NC(=O)c2ccnn2C)c(C)c1, the IC50 [1] is reported as > 10000 nM, the IC50 [2] is reported as > 10000 nM and the IC50 [3] is reported as 9660 nM. For the same compound, the IC50 [4] was 9750 nM, the IC50 [5] was > 10000 nM and the viability, T/C [6] was 111%. For the same compound, the viability, T/C [7] was 119%, the viability, T/C (second compound 0.1 µM, first compound 0.316 µM) was 113% and the viability, T/C (second compound 0.1 µM, first compound 1 µM) was 102%. The viability, T/C (second compound 0.1 µM, first compound 3.16 µM) was 86.5%, the viability, T/C (second compound 0.1 µM, first compound 10 µM) was 52.3% and the viability, T/C [8] was 123%. For the same compound, the viability, T/C [9] was 112%, the viability, T/C (second compound 0.316 µM, first compound 0.316 µM) was 132% and the viability, T/C (second compound 0.316 µM, first compound 1 µM) was 114%. The viability, T/C (second compound 0.316 µM, first compound 3.16 µM) was 118%, the viability, T/C (second compound 0.316 µM, first compound 10 µM) was 51.7% and the viability, T/C [10] was 108%. For the same compound, the viability, T/C [11] was 102%, the viability, T/C (second compound 1 µM, first compound 0.316 µM) was 122% and the viability, T/C (second compound 1 µM, first compound 1 µM) was 112%. The viability, T/C (second compound 1 µM, first compound 3.16 µM) was 114%, the viability, T/C (second compound 1 µM, first compound 10 µM) was 48.1% and the viability, T/C [12] was 111%. The viability, T/C [13] was 107%, the viability, T/C (second compound 3.16 µM, first compound 0.316 µM) was 114% and the viability, T/C (second compound 3.16 µM, first compound 1 µM) was 112%. The viability, T/C (second compound 3.16 µM, first compound 3.16 µM) was 112%, the viability, T/C (second compound 3.16 µM, first compound 10 µM) was 48.5% and the viability, T/C [14] was 116%. The viability, T/C [15] was 147%, the viability, T/C (second compound 10 µM, first compound 0.316 µM) was 131% and the viability, T/C (second compound 10 µM, first compound 1 µM) was 129%. For the same compound, the viability, T/C (second compound 10 µM, first compound 3.16 µM) was 111% and the viability, T/C (second compound 10 µM, first compound 10 µM) was 57.8%.
`NS(=O)(=O)OCC1CC(n2ccc3c(NC4CCc5ccccc54)ncnc32)CC1O` (configuration not stated) was tested, and the viability, T/C (compound 0.0316 µM) was 102% and 101% and 100%, the viability, T/C (compound 0.1 µM) was 119% and 96.5% and 107% and the viability, T/C (compound 0.316 µM) was 107% (2×) and 102%. For the same compound, the viability, T/C (compound 1 µM) was 95.7% and 59% and 75.3%, the viability, T/C (compound 3.16 µM) was 40.4% and 32.9% and 49.2% and the viability, T/C (compound 10 µM) was 27.5% and 21.6% and 24.1%. For the same compound, the IC50 (curve of compound) was 2590 nM and 1420 nM and 2770 nM.
`CCc1c2c(nc3ccc(O)cc13)-c1cc3c(c(=O)n1C2)COC(=O)[C@]3(O)CC` + CC(CO)NC(=O)c1cc(-c2ccc(Cl)cc2)nn(-c2cnn(C)c2)c1=O was tested, and the IC50 [1] was 9.38 nM, the IC50 [2] was 6.85 nM and the IC50 [3] was 8.65 nM. For the same compound, the IC50 [4] was 11.5 nM, the IC50 [5] was 19.8 nM and the viability, T/C (second compound 0.1 µM, first compound 0.000949 µM) was 53.8%. For the same compound, the viability, T/C (second compound 0.1 µM, first compound 0.003 µM) was 58.1%, the viability, T/C (second compound 0.1 µM, first compound 0.00949 µM) was 52.2% and the viability, T/C (second compound 0.1 µM, first compound 0.03 µM) was 36.1%. It also gave a viability, T/C (second compound 0.1 µM, first compound 0.0949 µM) of 40.8%, a viability, T/C (second compound 0.1 µM, first compound 0.3 µM) of 26.7% and a viability, T/C (second compound 0.316 µM, first compound 0.000949 µM) of 70.6%. The viability, T/C (second compound 0.316 µM, first compound 0.003 µM) was 53.1%, the viability, T/C (second compound 0.316 µM, first compound 0.00949 µM) was 48.9% and the viability, T/C (second compound 0.316 µM, first compound 0.03 µM) was 38.2%. It also gave a viability, T/C (second compound 0.316 µM, first compound 0.0949 µM) of 34.6%, a viability, T/C (second compound 0.316 µM, first compound 0.3 µM) of 25% and a viability, T/C (second compound 1 µM, first compound 0.000949 µM) of 63.5%. For the same compound, the viability, T/C (second compound 1 µM, first compound 0.003 µM) was 56.4%, the viability, T/C (second compound 1 µM, first compound 0.00949 µM) was 51.5% and the viability, T/C (second compound 1 µM, first compound 0.03 µM) was 34.8%. The viability, T/C (second compound 1 µM, first compound 0.0949 µM) was 27.9%, the viability, T/C (second compound 1 µM, first compound 0.3 µM) was 21% and the viability, T/C (second compound 3.16 µM, first compound 0.000949 µM) was 55.8%. For the same compound, the viability, T/C (second compound 3.16 µM, first compound 0.003 µM) was 52.6%, the viability, T/C (second compound 3.16 µM, first compound 0.00949 µM) was 54.6% and the viability, T/C (second compound 3.16 µM, first compound 0.03 µM) was 34.6%. The viability, T/C (second compound 3.16 µM, first compound 0.0949 µM) was 26.6%, the viability, T/C (second compound 3.16 µM, first compound 0.3 µM) was 19.3% and the viability, T/C (second compound 10 µM, first compound 0.000949 µM) was 63.9%. The viability, T/C (second compound 10 µM, first compound 0.003 µM) was 54.4%, the viability, T/C (second compound 10 µM, first compound 0.00949 µM) was 57.3% and the viability, T/C (second compound 10 µM, first compound 0.03 µM) was 47%. It also gave a viability, T/C (second compound 10 µM, first compound 0.0949 µM) of 30.3% and a viability, T/C (second compound 10 µM, first compound 0.3 µM) of 19.4%.
